How the values were obtained:
[1] = tested on: Enterobacterales isolates; parameters: method as in ref 13, 14 = [13]; 13 Vidales A , Hackel M , Wise M , Sahm D . 2020 . Antimicrobial activity of cefepime in combination with taniborbactam (formerly VNRX-5133) against clinical isolates of Enterobacterales collected fro || [14]; 14 Kalamatas J , Hackel M , Wise M , Sahm D . 2020 . Antimicrobial activity of cefepime in combination with taniborbactam (formerly VNRX-5133) against a 2018–2019 surveillance collection of Pseudomona; conditions: cited from earlier work
[2] = Single-ascending-dose (SAD) pharmacokinetics in plasma and urine, healthy adult volunteers; type: in vivo, human; conditions: for Tmax: median (range); for Fe: excreted unchanged in urine over 48 h; for Ae: urine over 48 h
Procedure: (§1) Eligible subjects were randomized to receive either taniborbactam or placebo in a 3:1 ratio within dose cohorts in both the SAD and MAD parts of the study. Each dose cohort in the SAD part of the study enrolled 8 subjects, and each dose cohort in the MAD part of the study enrolled 12 subjects. In the SAD part, subjects received 62.5, 125, 250, 500, 1,000, or 1,500 mg taniborbactam as a 2-h intravenous (i.v.) infusion. In the MAD part, subjects received 2-h intravenous i.v. infusions of 250, 500, or 750 mg taniborbactam q8h over 10 days, ending after a final morning dose on day 10 (total of 28 doses).
Blood samples for assay of taniborbactam in plasma were collected predose and at 1, 2, 2.25, 2.5, 2.75, 3, 4, 6, 8, 12, 26, and 50 h after the start of drug infusion in the SAD part. For the MAD part, blood samples to determine taniborbactam plasma concentrations were collected predose and at 1, 2, 2.25, 2.5, 2.75, 3, 4, 6, and 8 h following the first dose (day 1) and predose and at 1, 2, 2.25, 2.5, 2.75, 3, 4, 6, 10, 14, and 26 h following the last dose (day 10). Urine was collected predose and at intervals of 0 to 4, 4 to 8, 8 to 24, and 24 to 48 h after the start of the infusion in the SAD part for the higher-dose groups (500 to 1,500 mg taniborbactam). For the MAD part, urine was collected through the dosing interval following the last dose using collection intervals of 0 to 4 and 4 to 8 h after the start of the infusion. At the end of each urine collection interval, the volume of each urine collection was recorded and a sample was taken.
Plasma and urine samples were assayed for taniborbactam and screened for possible metabolites. Human dipotassium ethylenediaminetetraacetic acid (K2EDTA) plasma samples were processed using protein precipitation and assayed using ultra-high-performance liquid chromatography with tandem mass spectrometric detection (LC-MS/MS). Both low- and high-range methods were developed and validated for plasma samples, with calibration ranges of 5 to 5,000 ng/ml and 100 to 100,000 ng/ml, respectively. Acidified urine samples were processed using solid-phase extraction and assayed using a validated LC-MS/MS method with a calibration range of 5.0 to 5,000 ng/ml. For both matrices, separation was accomplished using a Waters Acquity HSS T3 column (Milford, MA) at 50°C, and gradient elution using 10 mM ammonium formate with 1% formic acid as mobile phase A and 50:50:1 acetonitrile:methanol:formic acid (vol/vol/vol) as mobile phase B. A triple quadrupole mass spectrometer (API Triple Quad 5500; AB Sciex, Framingham, MA) equipped with a turbo-ion spray set was used for detection in positive ion mode, and quantification was based on multiple reaction monitoring. The internal standard used in the assays was D4-taniborbactam.
Individual subject plasma and urine taniborbactam pharmacokinetic parameters were evaluated using noncompartmental analysis methods (Phoenix WinNonlin, Certara, Princeton, NJ). Single-dose pharmacokinetic parameters were determined in the SAD part, and both single-dose (day 1) and multiple-dose (day 10) pharmacokinetic parameters were determined in the MAD part. Estimated pharmacokinetic parameters included Cmax, time to Cmax (Tmax), AUCtau, AUC0–inf, t1/2, CL, VZ, Ae, Fe, and CLR. The actual sample times were used to calculate the pharmacokinetic parameters. Calculation of λZ was based on best fit of concentrations in the observed terminal elimination phase of a profile, and statistical inclusion of any parameter based on λZ required the goodness of fit statistic (R^2) to be greater than 0.8. Pharmacokinetic data were summarized using descriptive statistics by treatment. Dose proportionality based on Cmax and AUC was determined using linear regression to calculate the slope and 90% CI and observing whether a slope of 1 was included in the confidence interval. The dose proportionality analysis included subject body weight as a covariate in the analysis.

[3] = Safety and tolerability, treatment-emergent adverse events, SAD part; type: in vivo, human
Procedure: as §1
Safety was assessed based on the occurrence of adverse events and evaluation of laboratory tests (chemistry, hematology, urinalysis), physical examination, vital signs, and 12-lead electrocardiograms (ECGs) that were performed throughout the study. Safety was followed through 7 days postdose in the SAD part and followed through 7 days post-last dose in the MAD part.

[4] = single dose 62.5 mg, 2-h i.v. infusion, mean (%CV)
[5] = single dose 125 mg, 2-h i.v. infusion, mean (%CV)
[6] = single dose 250 mg, 2-h i.v. infusion, mean (%CV)
[7] = single dose 500 mg, 2-h i.v. infusion, mean (%CV)
[8] = single dose 1,000 mg, 2-h i.v. infusion, mean (%CV)
[9] = single dose 1,000 mg, mean (%CV)
[10] = single dose 1,500 mg, 2-h i.v. infusion, mean (%CV)
[11] = single dose 1,500 mg, mean (%CV)

Structure (SMILES): NCCN[C@H]1CC[C@H](CC(=O)N[C@H]2Cc3cccc(C(=O)O)c3OB2O)CC1 [Taniborbactam]
- potentiation of cefepime activity as measured by the MIC90 [1]: at least 128 fold
- t1/2 ([2]; higher single-dose groups (500 to 1,500 mg)): ~5.7 h
- AUCinf [2, 4]: 11,284 (13.3) h · ng/ml
- CL [2, 4]: 5.6 (14.1) liters/h
- Cmax [2, 4]: 3,398 (17.0) ng/ml
- Vz [2, 4]: 28.4 (18.7) liters
- Tmax ([2]; single dose 62.5 mg, 2-h i.v. infusion): 2.0 (2.0, 2.0) h
- t1/2 ([2]; single dose 62.5 mg, 2-h i.v. infusion, terminal elimination, mean (%CV)): 3.5 (9.3) h
- AUCinf [2, 5]: 20,326 (13.7) h · ng/ml
- CL [2, 5]: 6.2 (12.6) liters/h
- Cmax [2, 5]: 5,023 (13.8) ng/ml
- Vz [2, 5]: 30.2 (14.2) liters
- Tmax ([2]; single dose 125 mg, 2-h i.v. infusion): 2.0 (2.0, 2.0) h
- t1/2 ([2]; single dose 125 mg, 2-h i.v. infusion, terminal elimination, mean (%CV)): 3.4 (5.8) h
- AUCinf [2, 6]: 41,106 (19.0) h · ng/ml
- CL [2, 6]: 6.3 (17.5) liters/h
- Cmax [2, 6]: 11,533 (13.8) ng/ml
- Vz [2, 6]: 34.6 (17.1) liters
- Tmax ([2]; single dose 250 mg, 2-h i.v. infusion): 2.0 (2.0, 2.0) h
- t1/2 ([2]; single dose 250 mg, 2-h i.v. infusion, terminal elimination, mean (%CV)): 4.0 (31.1) h
- AUCinf [2, 7]: 82,499 (9.2) h · ng/ml
- CL [2, 7]: 6.1 (9.0) liters/h
- Cmax [2, 7]: 22,650 (11.4) ng/ml
- Vz [2, 7]: 50.2 (12.1) liters
- Tmax ([2]; single dose 500 mg, 2-h i.v. infusion): 2.0 (2.0, 2.0) h
- t1/2 ([2]; single dose 500 mg, 2-h i.v. infusion, terminal elimination, mean (%CV)): 5.7 (4.3) h
- Fe ([2]; single dose 500 mg, mean (%CV)): 64.1 (9.6) %
- Fe ([2]; single dose 500 mg, mean (%CV), listed as taniborbactam): 64.1%
- CLR ([2]; single dose 500 mg, mean (%CV)): 3.9 (15.5) liters/h
- Ae ([2]; single dose 500 mg, mean (%CV)): 320.6 (9.6) mg
- AUCinf [2, 8]: 156,542 (15.7) h · ng/ml
- CL [2, 8]: 6.5 (15.7) liters/h
- Cmax [2, 8]: 43,317 (14.8) ng/ml
- Vz [2, 8]: 54.0 (17.9) liters
- Tmax ([2]; single dose 1,000 mg, 2-h i.v. infusion): 2.0 (2.0, 2.1) h
- t1/2 ([2]; single dose 1,000 mg, 2-h i.v. infusion, terminal elimination, mean (%CV)): 5.7 (3.3) h
- Fe [2, 9]: 76.7 (9.4) %
- Fe ([2]; single dose 1,000 mg, mean (%CV), listed as taniborbactam): 76.7%
- CLR [2, 9]: 5.0 (16.7) liters/h
- Ae [2, 9]: 766.9 (9.4) mg
- AUCinf [2, 10]: 263,422 (17.8) h · ng/ml
- CL [2, 10]: 5.9 (19.2) liters/h
- Cmax [2, 10]: 71,817 (16.3) ng/ml
- Vz [2, 10]: 49.4 (21.6) liters
- Tmax ([2]; single dose 1,500 mg, 2-h i.v. infusion): 2.0 (2.0, 2.0) h
- t1/2 ([2]; single dose 1,500 mg, 2-h i.v. infusion, terminal elimination, mean (%CV)): 5.8 (6.2) h
- Fe [2, 11]: 66.6 (12.9) %
- Fe ([2]; single dose 1,500 mg, mean (%CV), listed as taniborbactam): 66.6%
- CLR [2, 11]: 3.9 (16.8) liters/h
- Ae [2, 11]: 998.7 (12.9) mg
- half-life of the earlier phase that characterizes the majority of exposure ([2]; single doses, also seen within dose intervals on multiple dosing): about 2 h
- deaths, serious adverse events, adverse events leading to discontinuation ([3]; SAD and MAD parts): no deaths, serious adverse events, or adverse events leading to discontinuation
- Adverse event: Abdominal pain ([3]; in vivo): 1 (2.8) No. (%)
- Adverse event: Arthralgia ([3]; in vivo): 1 (2.8) No. (%)
- Adverse event: Back pain ([3]; in vivo): 1 (2.8) No. (%)
- Adverse event: Headache ([3]; in vivo): 1 (2.8) No. (%)
- Adverse event: Increased blood CPK ([3]; in vivo): 1 (2.8) No. (%)
- Adverse event: Increased hepatic enzyme ([3]; in vivo): 1 (2.8) No. (%)
- Adverse event: Migraine ([3]; in vivo): 1 (2.8) No. (%)
- Adverse event: Nausea ([3]; in vivo): 1 (2.8) No. (%)
- Adverse event: Pharyngitis ([3]; in vivo): 0 (0.0) No. (%)
- Adverse event: Viral URI ([3]; in vivo): 1 (2.8) No. (%)
- Adverse event: Vomiting ([3]; in vivo): 1 (2.8) No. (%)
- changes in vital signs, clinical laboratory evaluations, ECGs, physical examinations ([3]; in vivo): no clinically significant changes
- subjects with adverse events considered by the investigator to be related to treatment ([3]; in vivo): 1 subject

Reference: paper PMC8522722, “Safety and Pharmacokinetics in Human Volunteers of Taniborbactam (VNRX-5133), a Novel Intravenous β-Lactamase Inhibitor” (Antimicrobial Agents and Chemotherapy, 2021)
